The target of assay [1] is T1, human recombinant kinase full-length wildtype AKT1 (Homo sapiens, UniProt P31749).
T1 construct: Purified human recombinant kinase full-length wildtype AKT1 was expressed in insect cells; made in house; host or cells: insect cells
In words: AKT1 kinase assay (wildtype, TR-FRET, Lance). It is filed as biochemical. The settings on record: 0.6 nM wildtype AKT1, 50 nM Ulight-CREBtide, either 50 μM ATP or 2 mM ATP, 60 min at RT. Put shortly: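 Insect-cell-expressed full-length human AKT1, PDPK1-activated (0.6 nM), preincubated with compound 15 min at RT, then reacted 60 min at RT with 50 nM ULight-CREBtide and 50 μM or 2 mM ATP (pH 7.5, 1% DMSO). Phospho-CREBtide read by Eu-anti-phospho-Ser133 TR-FRET (665/620 ratio); IC50 from 10-point 4-parameter fit.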
(In TR-FRET formats the signal depends on donor and acceptor labels being close together.)

The target of assay [2] is T2, human recombinant kinase full-length AKT1 E17K (Homo sapiens, UniProt P31749, E17K).
T2 construct: Purified human recombinant kinase full-length AKT1 E17K was expressed in insect cells; made in house; host or cells: insect cells
In words: AKT1 E17K kinase assay (TR-FRET, Lance). It counts as biochemical. The settings on record: 0.6 nM AKT1 E17K, 50 nM Ulight-CREBtide, either 50 μM ATP or 2 mM ATP, 60 min at RT. The method in brief:
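Full-length AKT1 E17K from insect cells, PDPK1-activated, at 0.6 nM with 50 nM Ulight-CREBtide and 50 μM or 2 mM ATP, pH 7.5, 1% DMSO. Enzyme and compound preincubated 15 min, reaction run 60 min at RT; Eu-anti-phospho-CREB (Ser133) TR-FRET 665/620 ratio, 10-point curve, IC50 by 4-parameter fit.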

pIC50: −log10 of the molar value.

T2 sequence (P31749 whole entry E17K): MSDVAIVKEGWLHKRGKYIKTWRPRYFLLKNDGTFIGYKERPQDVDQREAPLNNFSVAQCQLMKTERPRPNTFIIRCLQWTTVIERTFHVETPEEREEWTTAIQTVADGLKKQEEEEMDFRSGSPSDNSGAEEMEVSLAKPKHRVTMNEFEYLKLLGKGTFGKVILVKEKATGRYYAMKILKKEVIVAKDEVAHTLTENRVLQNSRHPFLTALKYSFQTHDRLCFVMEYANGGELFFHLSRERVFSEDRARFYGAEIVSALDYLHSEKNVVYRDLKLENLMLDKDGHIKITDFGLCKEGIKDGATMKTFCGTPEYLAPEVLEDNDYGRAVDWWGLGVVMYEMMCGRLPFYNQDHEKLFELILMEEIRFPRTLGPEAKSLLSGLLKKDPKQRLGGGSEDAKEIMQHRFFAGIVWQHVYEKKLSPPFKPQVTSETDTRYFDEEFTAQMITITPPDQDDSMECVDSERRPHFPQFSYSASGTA
T1 sequence (P31749 whole entry): as the sequence (P31749 whole entry E17K) above, with K17E counted along it

As a reminder, the pIC50 is the IC50 on a negative log10 scale, so that one unit is a factor of ten. Take `CC(C)(C(=O)O)C1CCN(C(=O)c2ccc(-n3c(-c4cccnc4N)nc4ccc(-c5ccccc5)nc43)cc2)C1` (stereo not shown) [Compound I-82, 2-(1-(4-(2-(2-aminopyridin-3-yl)-5-phenyl-3H-imidazo[4,5-b]pyridin-3-yl)benzoyl)pyrrolidin-3-yl)-2-methylpropanoic acid]: the negative-log IC50 (pIC50) in assay [1] is above 4.70; in assay [2] it was at most 5.70.

Turning to `CC(c1ccc(-n2c(-c3cccnc3N)nc3ccc(-c4ccccc4)nc32)cc1)N1CCCC(C(=O)O)C1` (stereo not shown) [Compound I-83, 1-(1-(4-(2-(2-aminopyridin-3-yl)-5-phenyl-3H-imidazo[4,5-b]pyridin-3-yl)phenyl)ethyl)piperidine-3-carboxylic acid], the values for the negative-log IC50 (pIC50) in assay [1] and in assay [2] were above 4.70 and at most 5.70, respectively.

Regarding `CC(c1ccc(-n2c(-c3cccnc3N)nc3ccc(-c4ccccc4)nc32)cc1)N1CCC(C(=O)O)C1` (stereo not shown) [Compound I-84, 1-(1-(4-(2-(2-aminopyridin-3-yl)-5-phenyl-3H-imidazo[4,5-b]pyridin-3-yl)phenyl)ethyl)pyrrolidine-3-carboxylic acid], the negative-log IC50 (pIC50) is above 4.70 in assay [1] and at most 5.70 in assay [2].

For the compound `CC1(C)CN(Cc2ccc(-n3c(-c4cccnc4N)nc4ccc(-c5ccccc5)nc43)cc2)CCC1C(=O)O` (stereo not shown) [Compound I-85, 1-[[4-[2-(2-amino-3-pyridyl)-5-phenyl-imidazo[4,5-b]pyridin-3-yl]phenyl]methyl]-3,3-dimethyl-piperidine-4-carboxylic acid], the pIC50 in assay [1] was above 4.70; in assay [2], at most 5.70.

As to `CC1(C(=O)O)CCN(Cc2ccc(-n3c(-c4cccnc4N)nc4ccc(-c5ccccc5)nc43)cc2)CC1` [Compound I-86, 1-[[4-[2-(2-amino-3-pyridyl)-5-phenyl-imidazo[4,5-b]pyridin-3-yl]phenyl]methyl]-4-methyl-piperidine-4-carboxylic acid], the values for the pIC50 in assay [1] and in assay [2] were above 4.70 and 5.70 to 6.30, respectively.

Consider `CC(C)(N[C@@H]1CC[C@@H](C(=O)O)C1)c1ccc(-n2c(-c3cccnc3N)nc3ccc(-c4ccccc4)nc32)cc1` [Compound I-87, (1R,3R)-3-((2-(4-(2-(2-aminopyridin-3-yl)-5-phenyl-3H-imidazo[4,5-b]pyridin-3-yl)phenyl)propan-2-yl)amino)cyclopentane-1-carboxylic acid], for which the pIC50 in assay [1] is above 4.70; in assay [2] it was at most 5.70.

As to `CC(C)(N[C@@H]1CC[C@H](C(=O)O)C1)c1ccc(-n2c(-c3cccnc3N)nc3ccc(-c4ccccc4)nc32)cc1` [Compound I-88, (1S,3R)-3-((2-(4-(2-(2-aminopyridin-3-yl)-5-phenyl-3H-imidazo[4,5-b]pyridin-3-yl)phenyl)propan-2-yl)amino)cyclopentane-1-carboxylic acid], the negative logarithm of the IC50 (pIC50) in assay [1] was above 4.70; in assay [2], at most 5.70.

In the case of `CC(C)(NC1CCC(C(=O)O)CC1)c1ccc(-n2c(-c3cccnc3N)nc3ccc(-c4ccccc4)nc32)cc1` (stereo not shown) [Compound I-89, (1r,4r)-4-((2-(4-(2-(2-aminopyridin-3-yl)-5-phenyl-3H-imidazo[4,5-b]pyridin-3-yl)phenyl)propan-2-yl)amino)cyclohexane-1-carboxylic acid], the pIC50 in assay [1] was above 4.70; in assay [2], at most 5.70.

Turning to `Nc1ncccc1-c1nc2ccc(-c3ccccc3)nc2n1-c1ccc(CN[C@H]2CC[C@H](C(=O)O)CC2)cc1` [Compound I-90, (1r,4r)-4-((4-(2-(2-aminopyridin-3-yl)-5-phenyl-3H-imidazo[4,5-b]pyridin-3-yl)benzyl)amino)cyclohexane-1-carboxylic acid], the negative logarithm of the IC50 (pIC50) in assay [1] is above 4.70; in assay [2] it was above 6.30.

Take `Nc1ncccc1-c1nc2ccc(-c3ccccc3)nc2n1-c1ccc(CN[C@H]2CC[C@@H](C(=O)O)CC2)cc1` [Compound I-91, (1s,4s)-4-((4-(2-(2-aminopyridin-3-yl)-5-phenyl-3H-imidazo[4,5-b]pyridin-3-yl)benzyl)amino)cyclohexane-1-carboxylic acid]: the figures for the negative logarithm of the IC50 (pIC50) in assay [1] and in assay [2] were above 4.70 and above 6.30, respectively.

As for `CC(C)(C(=O)O)C1CCN(Cc2ccc(-n3c(-c4cccnc4N)nc4ccc(-c5ccccc5)nc43)cc2)CC1` [Compound I-92, 2-(1-(4-(2-(2-aminopyridin-3-yl)-5-phenyl-3H-imidazo[4,5-b]pyridin-3-yl)benzyl)piperidin-4-yl)-2-methylpropanoic acid], the pIC50 in assay [1] was above 4.70; in assay [2], at most 5.70.

In the case of `Nc1ncccc1-c1nc2ccc(-c3ccccc3)nc2n1-c1ccc(CN2CC3(CC(C(=O)O)C3)C2)cc1` [Compound I-93, 2-(4-(2-(2-aminopyridin-3-yl)-5-phenyl-3H-imidazo[4,5-b]pyridin-3-yl)benzyl)-2-azaspiro[3.3]heptane-6-carboxylic acid], the pIC50 was above 4.70 in assay [1] and 5.70 to 6.30 in assay [2].

Regarding `Nc1ncccc1-c1nc2ccc(-c3ccccc3)nc2n1-c1ccc(CN2CCC(CC(=O)O)C2)cc1` (stereo not shown) [Compound I-94, 2-(1-(4-(2-(2-aminopyridin-3-yl)-5-phenyl-3H-imidazo[4,5-b]pyridin-3-yl)benzyl)pyrrolidin-3-yl)acetic acid], the figures for the pIC50 in assay [1] and in assay [2] were above 4.70 and above 6.30, respectively.

As for `CN(Cc1ccc(-n2c(-c3cccnc3N)nc3ccc(-c4ccccc4)nc32)cc1)[C@H]1CC[C@@H](C(=O)O)CC1` [Compound I-95, (1s,4s)-4-((4-(2-(2-aminopyridin-3-yl)-5-phenyl-3H-imidazo[4,5-b]pyridin-3-yl)benzyl)(methyl)amino)cyclohexane-1-carboxylic acid], the negative logarithm of the IC50 (pIC50) is above 4.70 in assay [1] and above 6.30 in assay [2].

For the compound `CN(Cc1ccc(-n2c(-c3cccnc3N)nc3ccc(-c4ccccc4)nc32)cc1)[C@H]1CC[C@H](C(=O)O)CC1` [Compound I-96, (1r,4r)-4-((4-(2-(2-aminopyridin-3-yl)-5-phenyl-3H-imidazo[4,5-b]pyridin-3-yl)benzyl)(methyl)amino)cyclohexane-1-carboxylic acid], the results for the pIC50 in assay [1] and in assay [2] were above 4.70 and above 6.30, respectively.

For the compound `Nc1ncccc1-c1nc2ccc(-c3ccccc3)nc2n1-c1ccc(CN2CCC(CC(=O)O)CC2)cc1` [Compound I-97, 2-(1-(4-(2-(2-aminopyridin-3-yl)-5-phenyl-3H-imidazo[4,5-b]pyridin-3-yl)benzyl)piperidin-4-yl)acetic acid], the negative-log IC50 (pIC50) was above 4.70 in assay [1] and 5.70 to 6.30 in assay [2].

Turning to `CC(C(=O)O)C1CCN(Cc2ccc(-n3c(-c4cccnc4N)nc4ccc(-c5ccccc5)nc43)cc2)CC1` (stereo not shown) [Compound I-98, 2-(1-(4-(2-(2-aminopyridin-3-yl)-5-phenyl-3H-imidazo[4,5-b]pyridin-3-yl)benzyl)piperidin-4-yl)propanoic acid], the negative-log IC50 (pIC50) in assay [1] is above 4.70; in assay [2], at most 5.70.

For `CC1(C)CC(C(=O)O)CCN1Cc1ccc(-n2c(-c3cccnc3N)nc3ccc(-c4ccccc4)nc32)cc1` (stereo not shown) [Compound I-99, 1-(4-(2-(2-aminopyridin-3-yl)-5-phenyl-3H-imidazo[4,5-b]pyridin-3-yl)benzyl)-2,2-dimethylpiperidine-4-carboxylic acid], the values for the pIC50 in assay [1] and in assay [2] were above 4.70 and at most 5.70, respectively.

Consider `Cc1cc(NC(=O)C2CC3(CC(C(=O)O)C3)C2)ccc1-n1c(-c2cccnc2N)nc2ccc(-c3ccccc3)nc21` (stereo not shown) [Compound I-100, 6-((4-(2-(2-aminopyridin-3-yl)-5-phenyl-3H-imidazo[4,5-b]pyridin-3-yl)-3-methylphenyl)carbamoyl)spiro[3.3]heptane-2-carboxylic acid], for which the negative-log IC50 (pIC50) in assay [1] is above 4.70; in assay [2] it was 5.70 to 6.30.

Consider `Cc1c(-n2c(-c3cccnc3N)nc3ccc(-c4ccccc4)nc32)ccc(NC(=O)C2CC3(CC(C(=O)O)C3)C2)c1F` (stereo not shown) [Compound I-101, 6-((4-(2-(2-aminopyridin-3-yl)-5-phenyl-3H-imidazo[4,5-b]pyridin-3-yl)-2-fluoro-3-methylphenyl)carbamoyl)spiro[3.3]heptane-2-carboxylic acid], for which the pIC50 was above 4.70 in assay [1] and at most 5.70 in assay [2].

Turning to `Cc1cc(NC(=O)[C@H]2CC[C@H](C(=O)O)CC2)ccc1-n1c(-c2cccnc2N)nc2ccc(-c3ccccc3)nc21` [Compound I-102, (1r,4r)-4-((4-(2-(2-aminopyridin-3-yl)-5-phenyl-3H-imidazo[4,5-b]pyridin-3-yl)-3-methylphenyl)carbamoyl)cyclohexane-1-carboxylic acid], the negative-log IC50 (pIC50) was above 4.70 in assay [1] and 5.70 to 6.30 in assay [2].

Consider `Cc1c(-n2c(-c3cccnc3N)nc3ccc(-c4ccccc4)nc32)ccc(NC(=O)[C@H]2CC[C@H](C(=O)O)CC2)c1F` [Compound I-103, (1r,4r)-4-((4-(2-(2-aminopyridin-3-yl)-5-phenyl-3H-imidazo[4,5-b]pyridin-3-yl)-2-fluoro-3-methylphenyl)carbamoyl)cyclohexane-1-carboxylic acid], for which the results for the pIC50 in assay [1] and in assay [2] were above 4.70 and at most 5.70, respectively.

As to `CC(C(=O)O)C1CCN(Cc2ccc(-n3c(-c4cccnc4N)nc4ccc(-c5ccccc5)nc43)cc2)C1` (stereo not shown) [Compound I-104, 2-[1-[[4-[2-(2-amino-3-pyridyl)-5-phenyl-imidazo[4,5-b]pyridin-3-yl]phenyl]methyl]pyrrolidin-3-yl]propanoic acid], the pIC50 in assay [1] was above 4.70; in assay [2], 5.70 to 6.30.

For the origin of these results see patent publication US20260200920A1, “SUBSTITUTED AMINOPYRIDINE COMPOUNDS FOR USE AS AKT1 INHIBITORS” (Atavistik Bio, Inc., priority 2023, published 2026).
